From the supplement of paper PMC6045584
± gives the standard deviation of the averaged measurements.

Legend:
[1] = compound: CCc1cc(Nc2nccc(-c3c(-c4ccc(OC)c(C(=O)Nc5c(F)cccc5F)c4)nc4ccccn34)n2)c(OC)cc1N1CCC(N2CCN(S(C)(=O)=O)CC2)CC1; test: surviving fraction relative to DMSO-only wells; higher = less growth inhibition; settings: exposure time: 5 days
Summary of the method: (§1)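 For each tumour cell line, log-phase cells were put into 384-well plates at 250–500 cells per well, then after 24 hours exposed continuously for five days to inhibitors at 0.5, 1, 5, 10, 50, 100, 500 and 1000 nM. Viability was assessed by CellTiter-Glo luminescence, with surviving fraction expressed relative to the median of DMSO-only wells. Lines were screened three times and retained only if replicate Pearson r exceeded 0.7 and median Z' exceeded 0.3.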

NILOTINIB = compound: Cc1cn(-c2cc(NC(=O)c3ccc(C)c(Nc4nccc(-c5cccnc5)n4)c3)cc(C(F)(F)F)c2)cn1 [NILOTINIB]; test: as above; settings: exposure time: 5 days
Summary of the method: as §1

Test System	surviving fraction ([1]; 0.5 nM)	surviving fraction ([1]; 1 nM)	surviving fraction ([1]; 5 nM)	surviving fraction ([1]; 10 nM)	surviving fraction ([1]; 50 nM)	surviving fraction ([1]; 100 nM)	surviving fraction ([1]; 500 nM)	surviving fraction ([1]; 1000 nM)	surviving fraction (NILOTINIB; 0.5 nM)	surviving fraction (NILOTINIB; 1 nM)	surviving fraction (NILOTINIB; 5 nM)	surviving fraction (NILOTINIB; 10 nM)	surviving fraction (NILOTINIB; 50 nM)	surviving fraction (NILOTINIB; 100 nM)	surviving fraction (NILOTINIB; 500 nM)	surviving fraction (NILOTINIB; 1000 nM)
22RV1 PROSTATE	1 ± 0.014	1.02 ± 0.023	0.989 ± 0.014	0.953 ± 0.026	1.01 ± 0.024	0.991 ± 0.057	0.989 ± 0.033	0.946 ± 0.042	1.04 ± 0.05	1.07 ± 0.026	1.13 ± 0.079	1 ± 0.022	1.18 ± 0.13	1.09 ± 0.1	1.09 ± 0.043	1.09 ± 0.038
93VU HEADNECK	1.03 ± 0.062	1.09 ± 0.15	1.1 ± 0.21	1.12 ± 0.063	1.11 ± 0.033	1.05 ± 0.089	0.932 ± 0.051	0.936 ± 0.094	1.01 ± 0.03	0.97 ± 0.013	1.1 ± 0.1	1.14 ± 0.058	0.964 ± 0.049	1.03 ± 0.088	0.938 ± 0.076	0.872 ± 0.057
143B BONE	0.985 ± 0.033	0.959 ± 0.086	0.928 ± 0.13	1.03 ± 0.031	0.9995 ± 0.0035	0.996 ± 0.052	0.999 ± 0.0042	0.959 ± 0.023	1.09 ± 0.076	1.07 ± 0.043	1.13 ± 0.1	1.11 ± 0.081	1.14 ± 0.12	1.14 ± 0.11	1.1 ± 0.11	1.11 ± 0.11
A549 LUNG	0.954 ± 0.022	0.994 ± 0.045	0.995 ± 0.032	1.02 ± 0.033	0.983 ± 0.029	1.04 ± 0.036	1.01 ± 0.042	1.01 ± 0.034	1.06 ± 0.018	1.042 ± 0.01	1.11 ± 0.024	1.08 ± 0.037	1.1 ± 0.03	1.13 ± 0.045	1.08 ± 0.028	1.11 ± 0.043
ASKA SYNOVIAL	1.16 ± 0.063	1.17 ± 0.057	1.27 ± 0.088	1.16 ± 0.1	1.19 ± 0.017	1.2 ± 0.03	1.18 ± 0.03	1.04 ± 0.094	1.13 ± 0.033	1.02 ± 0.11	1.145 ± 0.0067	1.15 ± 0.036	1.08 ± 0.08	0.988 ± 0.088	0.936 ± 0.083	0.864 ± 0.066
BT20 BREAST	1.06 ± 0.11	1.01 ± 0.086	1.09 ± 0.018	1.13 ± 0.14	0.932 ± 0.068	0.941 ± 0.036	0.825 ± 0.074	0.707 ± 0.029	1.076 ± 0.0072	1.073 ± 0.0027	1.06 ± 0.05	1.16 ± 0.084	0.913 ± 0.14	1.01 ± 0.14	0.984 ± 0.12	0.878 ± 0.062
BT549 BREAST	1.03 ± 0.098	1.06 ± 0.033	1.14 ± 0.097	1.13 ± 0.082	1.07 ± 0.1	1.12 ± 0.1	1.08 ± 0.074	0.852 ± 0.019	1.1 ± 0.15	0.924 ± 0.095	1.1 ± 0.11	1.12 ± 0.11	1.05 ± 0.11	0.93 ± 0.14	1.01 ± 0.16	0.964 ± 0.15
C33A CERVIX	0.755 ± 0.047	0.874 ± 0.086	1 ± 0.057	0.892 ± 0.11	1.01 ± 0.11	0.952 ± 0.031	0.832 ± 0.062	0.793 ± 0.051	0.986 ± 0.1	1.08 ± 0.05	1.07 ± 0.031	1.01 ± 0.06	1.13 ± 0.067	1.27 ± 0.031	1.2 ± 0.086	1.14 ± 0.12
CADOES1 SOFT TISSUE	0.983 ± 0.048	0.983 ± 0.065	0.892 ± 0.12	0.885 ± 0.04	0.87 ± 0.1	1.05 ± 0.12	1.06 ± 0.12	1.08 ± 0.042	1.02 ± 0.17	0.987 ± 0.05	1.01 ± 0.13	0.93 ± 0.071	0.932 ± 0.13	1.02 ± 0.045	0.963 ± 0.055	1.01 ± 0.057
CAL51 BREAST	0.995 ± 0.06	1 ± 0.025	0.998 ± 0.029	1.03 ± 0.068	1.02 ± 0.017	1.04 ± 0.05	1.03 ± 0.043	1.03 ± 0.042	0.977 ± 0.039	0.897 ± 0.066	1.01 ± 0.038	0.947 ± 0.073	1.03 ± 0.068	1.01 ± 0.06	0.952 ± 0.059	0.971 ± 0.032
CAL72 BONE	1.06 ± 0.033	1.02 ± 0.026	1.03 ± 0.017	1.05 ± 0.025	1.08 ± 0.035	1.12 ± 0.032	1.13 ± 0.029	1.13 ± 0.033	1.02 ± 0.031	1.06 ± 0.018	1.03 ± 0.038	1.06 ± 0.018	0.979 ± 0.033	1.02 ± 0.013	0.969 ± 0.062	0.977 ± 0.06
CAL120 BREAST	0.944 ± 0.013	0.9663 ± 0.0055	0.968 ± 0.013	0.976 ± 0.032	0.976 ± 0.032	0.977 ± 0.024	0.944 ± 0.031	0.945 ± 0.021	1.02 ± 0.041	1.02 ± 0.012	1.04 ± 0.052	1.03 ± 0.035	1.04 ± 0.027	1.01 ± 0.072	1.04 ± 0.081	1.02 ± 0.049
CASKI CERVIX	0.937 ± 0.051	0.949 ± 0.055	0.97 ± 0.048	0.979 ± 0.04	0.946 ± 0.015	1.01 ± 0.043	0.967 ± 0.07	0.88 ± 0.039	0.914 ± 0.026	0.993 ± 0.024	1.01 ± 0.063	0.96 ± 0.045	0.88 ± 0.063	0.785 ± 0.035	0.764 ± 0.13	0.77 ± 0.075
CHLA90 AUTONOMIC GANGLIA	0.955 ± 0.039	1 ± 0.011	0.969 ± 0.054	0.932 ± 0.028	0.9353 ± 0.0021	0.94 ± 0.05	0.986 ± 0.031	0.952 ± 0.055	0.993 ± 0.057	1.01 ± 0.082	0.957 ± 0.036	1.09 ± 0.076	1.1 ± 0.055	1.14 ± 0.12	1.11 ± 0.016	1.09 ± 0.077
CME SYNOVIAL	1.4 ± 0.11	1.39 ± 0.21	1.39 ± 0.19	1.23 ± 0.05	1.36 ± 0.22	1.31 ± 0.089	0.913 ± 0.11	0.507 ± 0.034	1.17 ± 0.064	1.15 ± 0.24	1.31 ± 0.15	1.21 ± 0.091	1.1 ± 0.12	1 ± 0.099	0.926 ± 0.11	0.483 ± 0.026
COLO320DM LARGE INTESTINE	1.08 ± 0.04	1.18 ± 0.11	1.17 ± 0.06	1.19 ± 0.071	1.19 ± 0.09	1.14 ± 0.095	1.11 ± 0.061	0.892 ± 0.041	1.12 ± 0.059	1.04 ± 0.086	1.05 ± 0.13	1.08 ± 0.061	1.06 ± 0.095	0.961 ± 0.022	0.949 ± 0.024	0.764 ± 0.04
DU4475 BREAST	0.866 ± 0.12	0.937 ± 0.041	0.819 ± 0.072	1 ± 0.06	0.977 ± 0.28	0.832 ± 0.27	1.11 ± 0.34	1.19 ± 0.24	1.12 ± 0.018	1.06 ± 0.023	1.14 ± 0.13	1.06 ± 0.063	0.925 ± 0.088	1.06 ± 0.1	1.05 ± 0.066	0.9 ± 0.061
H23 LUNG	0.939 ± 0.042	1.02 ± 0.032	0.973 ± 0.012	1.06 ± 0.078	0.997 ± 0.014	1.02 ± 0.038	1.02 ± 0.029	1 ± 0.032	1.04 ± 0.077	1.05 ± 0.052	1.14 ± 0.025	1.08 ± 0.033	1.24 ± 0.096	1.26 ± 0.088	1.18 ± 0.094	1.17 ± 0.1
HCC78 LUNG	0.893 ± 0.21	0.819 ± 0.18	0.91 ± 0.14	0.859 ± 0.05	0.899 ± 0.32	0.864 ± 0.051	0.653 ± 0.19	0.657 ± 0.14	1.01 ± 0.092	0.993 ± 0.085	0.994 ± 0.055	1.1 ± 0.12	1.05 ± 0.09	1.1 ± 0.095	0.719 ± 0.085	0.525 ± 0.03
HCC202 BREAST	1.11 ± 0.32	1.27 ± 0.15	1.21 ± 0.21	1.14 ± 0.17	1.4 ± 0.18	1.25 ± 0.13	1.14 ± 0.15	1.18 ± 0.05	1.36 ± 0.11	1.08 ± 0.044	0.83 ± 0.15	0.987 ± 0.5	1.01 ± 0.22	1.09 ± 0.069	1.08 ± 0.052	0.912 ± 0.034
